Measured values as given in patent US11414385B2, “Compounds and methods for treating, detecting, and identifying compounds to treat apicomplexan parasitic diseases” (The University of Chicago, priority 2015, dated 2022).
Entries after “also recorded” stand apart in the source; their conditions may differ.

Columns and labels:
[1] = test system: T. gondii Me49 strain cysts; assay: Established brain cysts in mice (chronic infection); assay type: in vivo, Toxoplasma gondii; details: cysts established >2 months earlier, 12.5-25 mg/kg for 17 days
Procedure: The ability of compounds to reduce cyst burden and prevent encephalitis induced by the Type II strain of T. gondii were tested. Encephalitis was assessed by histological analyses and parasite burdens evaluated by quantitation of cysts.
The oocyst challenge model is ideal for this study because oocysts can be diluted at one time and stored at 4° C. for 12 months without loss of infectivity titer. For treatment of chronic infection there were 5 to 10 mice per group treated 2 months after infection was established by compound in DMSO for parenteral administration administered once per day. Treatment was for 17 days.

[2] = test system: T. gondii RH and Prugniaud strain tachyzoites; assay: Tachyzoite infection in mice; assay type: in vivo, Toxoplasma gondii; details: for efficacy against Prugniaud (Type 2) tachyzoites in mice: 25 mg/kg daily
Procedure: Ability of compounds to abrogate tachyzoites multiplication was assessed using an in vivo imaging system (IVIS). To facilitate this we have T. gondii strains from each of the 3 major lineages expressing the luciferase gene. In these studies mice are injected intraperitoneally with tachyzoites and parasite proliferation followed up to 30 days post infection. Removal of brains at 30 days allows parasite quantitation by bioluminescence ex vivo using the IVIS. As an alternative method to improve screening efficiency and scalability it is possible for initial screening to use zebrafish with histopathology and visualization as shown in FIG. 6. Quantitation also was performed using QT PCR as described for mice or in translucent Casper zebrafish with parasites with fluors or luciferase to screen rapidly. Tachyzoites and bradyzoites in cysts were used for IP infection and compounds given intraperitoneally.
To test type II parasites, we used T. gondii Me49 and Prugneaud parasites^S39.

SMILES: Cc1[nH]c2c(c(=O)c1-c1ccc(Oc3ccccc3)cc1)CCCC2 [MJM170]
- effect on numbers of Me49 strain cysts in mice [1]: modestly reduced numbers
- effect on numbers of Me49 strain cysts in mice ([1]; listed as MJM 170): reduces cysts
- efficacy against Prugniaud (Type 2) tachyzoites in mice [2]: highly efficacious
- efficacy against RH tachyzoites in mice ([2]; 25 mg/kg daily intraperitoneally, RH-YFP): highly efficacious; also recorded: eliminates active infection
- efficacy against Prugniaud (Type 2) tachyzoites in mice ([2]; listed as MJM 170): reduces Type 2 parasites
- toxicity in mice ([2]; 25 mg/kg for 5 days): without toxicity
